This assay deals with T1, human NaV1.8 (Homo sapiens, UniProt Q9Y5Y9).
T1 construct: The following NaV1.8 recombinant cell line was used for recordings: HEK-NaV1.8 (NM 006514.1); expressed in transfected cells; host or cells: HEK (recombinant cell line HEK-NaV1.8)
Description: Electrophysiology: automated whole-cell voltage-clamp (patch clamp, Qube384) recordings of sodium currents in HEK-NaV1.8 cells. It is filed as cell-based. The settings on record: potency data either taken from inactivated or resting state, read-out: Potency category (human NaV1.8 IC50). Here is the method: Electrophysiology: Voltage-Clamp Recordings
The following NaV1.8 recombinant cell line was used for recordings: HEK-NaV1.8 (NM 006514.1) with in (NM 018400.3).
Sodium currents were measured using the patch clamp technique in the whole-cell configuration using the Qube384 (Sophion A/S, Copenhagen, Denmark) automated voltage clamp platform. “Multi hole” plates were used for the cell line expressing NaV1.8 while “single hole” plates were used for the recombinant cell lines expressing the other subtypes. Appropriate filters (for minimum seal resistance and minimum current size) and series resistance compensation (for high quality sodium channel recordings) were applied. Data was collected at ambient room temperature.
The recording extracellular solution contained (in mM): NaCl 145 mM, KCl 4 mM, CaCl2 2 mM, MgCl2 1 mM, HEPES 10 mM, Glucose 10 mM, pH 7.4 (NaOH). The intracellular recording solution contained (in mM): CsF 120 mM, CsCl 20 mM, NaCl 10 mM, EGTA 10 mM, HEPES 10 mM, pH 7.2 (CsOH). Currents were recorded at 25 kHz sampling frequency and filtered at 5 kHz. Series resistance compensation was applied at 65%.
Vehicle (VEH) is the control condition where cells are exposed to 0.3% DMSO without compound. All runs include VEH controls being exposed to the same voltage protocols to assess non-compound related phenomena such as run down and then used to isolate compound dependent effects on currents.
To check for state-dependence inhibition, the following voltage-sequence was applied every 20 seconds:
From a resting membrane potential of −120 mV, the first test pulse (P1; 20 ms to −10 mV) was applied to check for channels in the Resting State followed by a brief recovery (20 ms to −120 mV), then holding the membrane voltage to V112 (4 seconds at voltage to obtain half the channel at Rest and half Inactivated) with a subsequent second test pulse (P2; 20 ms to −10 mV) to check for channels in the Inactivated State, followed by another brief recovery (20 ms to −120 mV) and a final third test pulse (P3; 20 ms to −10 mV) to check for recovered channels.
To check for frequency-dependent inhibition, a 10 Hz protocol and a 20 Hz protocol were applied; namely,
From a resting membrane potential of −120 mV, 40-pulses (10 ms to −10 mV) was applied at 10 Hz (at 100 ms between pulses) and then at 20 Hz (at 50 ms between pulses).
Each parameter was recorded (P1, P2, P3, P40 from 10 Hz and P40 from 20 Hz) during a control period (lasting 5 minutes) when establishing the baseline and during compound period (lasting ˜12 minutes) when test compound (or vehicle) was applied. For each parameter, the value at the end of the compound period was normalized to the vehicle baseline; as follows
To adjust for any variance in the Na^+ current signal during the compound period (owing to cumulative inactivation independent of compound or shifts in biophysics over time), a dedicated segment of the recording wells in each 384 plate were dedicated to having only vehicle exposure. These vehicle-only recordings were used to correct for any apparent “run-up” or “run-down” in the experiment.
The adjusted inhibition was calculated as follows: […]
Percent inhibition was determined and IC50 values were calculated using a 4 parameter logistic model within XLFit Software (IDBS, Boston MA):
[formula] where A and B are the maximal and minimum inhibition respectively, C is the IC50 concentration and D is the (Hill) slope.
The potency data was either taken from inactivated or resting state.

T1 sequence (Q9Y5Y9 whole entry): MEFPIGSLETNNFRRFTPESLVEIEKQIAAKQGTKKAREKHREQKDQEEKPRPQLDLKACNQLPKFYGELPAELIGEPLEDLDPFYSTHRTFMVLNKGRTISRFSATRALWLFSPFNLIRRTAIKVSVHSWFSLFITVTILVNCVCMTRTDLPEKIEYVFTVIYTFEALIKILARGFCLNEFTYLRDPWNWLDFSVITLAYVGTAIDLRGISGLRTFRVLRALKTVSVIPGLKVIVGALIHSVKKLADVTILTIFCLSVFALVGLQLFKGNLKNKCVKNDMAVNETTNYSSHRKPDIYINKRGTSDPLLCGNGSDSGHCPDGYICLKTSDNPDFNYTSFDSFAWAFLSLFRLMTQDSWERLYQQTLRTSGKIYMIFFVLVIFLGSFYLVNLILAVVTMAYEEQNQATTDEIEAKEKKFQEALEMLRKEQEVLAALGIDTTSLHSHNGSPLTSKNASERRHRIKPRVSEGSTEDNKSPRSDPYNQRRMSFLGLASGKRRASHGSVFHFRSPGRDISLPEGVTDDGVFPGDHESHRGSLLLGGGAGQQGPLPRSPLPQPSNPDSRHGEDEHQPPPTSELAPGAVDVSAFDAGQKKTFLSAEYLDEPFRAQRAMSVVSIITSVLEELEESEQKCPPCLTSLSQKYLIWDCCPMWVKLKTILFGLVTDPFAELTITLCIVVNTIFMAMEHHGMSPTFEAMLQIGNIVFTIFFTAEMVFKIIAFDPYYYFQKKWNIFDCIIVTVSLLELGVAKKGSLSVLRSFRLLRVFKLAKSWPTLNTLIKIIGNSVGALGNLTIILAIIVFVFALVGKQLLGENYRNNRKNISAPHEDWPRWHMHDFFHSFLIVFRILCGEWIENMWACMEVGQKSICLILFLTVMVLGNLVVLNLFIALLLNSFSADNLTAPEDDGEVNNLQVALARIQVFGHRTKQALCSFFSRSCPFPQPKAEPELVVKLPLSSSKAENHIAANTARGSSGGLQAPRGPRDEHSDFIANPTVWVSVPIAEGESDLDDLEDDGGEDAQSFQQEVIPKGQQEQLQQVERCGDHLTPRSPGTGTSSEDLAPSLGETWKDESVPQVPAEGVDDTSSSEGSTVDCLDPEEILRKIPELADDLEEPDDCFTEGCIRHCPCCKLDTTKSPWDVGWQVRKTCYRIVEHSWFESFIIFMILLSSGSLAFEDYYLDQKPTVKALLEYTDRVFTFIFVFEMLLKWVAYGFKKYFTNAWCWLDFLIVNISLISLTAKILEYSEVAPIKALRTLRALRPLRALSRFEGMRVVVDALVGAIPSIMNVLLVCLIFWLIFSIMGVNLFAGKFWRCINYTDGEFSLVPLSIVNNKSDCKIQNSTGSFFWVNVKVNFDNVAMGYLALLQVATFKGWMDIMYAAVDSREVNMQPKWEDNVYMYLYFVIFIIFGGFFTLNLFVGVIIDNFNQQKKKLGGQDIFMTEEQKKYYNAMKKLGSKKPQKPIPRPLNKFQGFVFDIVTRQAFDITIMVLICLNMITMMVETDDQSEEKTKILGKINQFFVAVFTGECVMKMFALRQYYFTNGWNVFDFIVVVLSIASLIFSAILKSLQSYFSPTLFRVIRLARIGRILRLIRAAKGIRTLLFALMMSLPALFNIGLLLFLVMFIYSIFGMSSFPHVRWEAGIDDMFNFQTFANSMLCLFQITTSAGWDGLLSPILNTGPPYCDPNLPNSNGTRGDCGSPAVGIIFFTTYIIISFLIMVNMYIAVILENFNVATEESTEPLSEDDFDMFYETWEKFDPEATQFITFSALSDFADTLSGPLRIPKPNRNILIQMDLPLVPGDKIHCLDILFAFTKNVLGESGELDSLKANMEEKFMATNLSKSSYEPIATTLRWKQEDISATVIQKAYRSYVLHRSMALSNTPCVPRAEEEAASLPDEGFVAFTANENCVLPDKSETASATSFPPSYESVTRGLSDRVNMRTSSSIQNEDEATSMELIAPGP
T1 sequence (Q9NY72 23-215 partner): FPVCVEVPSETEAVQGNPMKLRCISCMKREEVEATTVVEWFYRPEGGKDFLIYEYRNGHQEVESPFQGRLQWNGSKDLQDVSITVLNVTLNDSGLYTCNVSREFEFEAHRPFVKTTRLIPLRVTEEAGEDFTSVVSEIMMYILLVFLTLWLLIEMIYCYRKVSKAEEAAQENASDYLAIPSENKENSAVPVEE

In the case of `NC(=O)c1cc(NC(=O)c2c(C(F)(F)F)c(C3CC3)nn2CC2CC(C(F)F)C2)ccn1` (single isomer, unassigned) [SC-221a, 4-(3-cyclopropyl-1-((3-(difluoromethyl)cyclobutyl)methyl)-4-(trifluoromethyl)-1H-pyrazole-5-carboxamido)picolinamide], the IC50 is at most 100 nM. Turning to `NC(=O)c1cc(NC(=O)c2c(C(F)(F)F)c(C3CC3)nn2CC2CC(C(F)F)C2)ccn1` (single isomer, unassigned) [SC-221b, 4-(3-cyclopropyl-1-((3-(difluoromethyl)cyclobutyl)methyl)-4-(trifluoromethyl)-1H-pyrazole-5-carboxamido)picolinamide], the IC50 is at most 100 nM. In the case of `Cc1c(C(F)(F)F)nn(CC2CCC(F)(F)C2)c1C(=O)Nc1ccnc(S(N)(=O)=O)c1` (single isomer, unassigned) [SC-254a], the IC50 was at most 100 nM.

On to `Cc1c(C(F)(F)F)nn(CC2CCC(F)(F)C2)c1C(=O)Nc1ccnc(S(N)(=O)=O)c1` (single isomer, unassigned) [SC-254b], for which the IC50 is at most 100 nM. As for `NC(=O)c1cc(NC(=O)c2c(C(F)(F)F)c(C3CC3)nn2CC2CCCCO2)ccn1` (single isomer, unassigned) [SC-258a], the half-maximal inhibitory concentration (IC50) is at most 100 nM.

Turning to `NC(=O)c1cc(NC(=O)c2c(C(F)(F)F)c(C3CC3)nn2CC2CCCCO2)ccn1` (single isomer, unassigned) [SC-258b], the IC50 was at most 100 nM. Take `CS(=O)(=O)c1cc(NC(=O)c2c(C(F)(F)F)c(C3CC3)nn2CC2CCCCO2)ccn1` (single isomer, unassigned) [SC-259a]: the IC50 was at most 100 nM. With `CS(=O)(=O)c1cc(NC(=O)c2c(C(F)(F)F)c(C3CC3)nn2CC2CCCCO2)ccn1` (single isomer, unassigned) [SC-259b], the IC50 is at most 100 nM. As for `COc1c(C(C)(F)F)nn(CC2CCC(F)(F)C2)c1C(=O)Nc1ccnc(C(N)=O)c1` (single isomer, unassigned) [SC-271a], the IC50 fell in the range of 100 to 1000 nM. As for `COc1c(C(C)(F)F)nn(CC2CCC(F)(F)C2)c1C(=O)Nc1ccnc(C(N)=O)c1` (single isomer, unassigned) [SC-271b], the figure is 100 to 1000 nM; as for `CS(=O)(=O)c1cc(NC(=O)c2c(C(F)(F)F)c(C3CC3)nn2CC2CCC(F)(F)C2)ccn1` (single isomer, unassigned) [SC-277a], at most 100 nM.

Regarding `CS(=O)(=O)c1cc(NC(=O)c2c(C(F)(F)F)c(C3CC3)nn2CC2CCC(F)(F)C2)ccn1` (single isomer, unassigned) [SC-277b], the IC50 is at most 100 nM. As to `Cc1c(C(F)(F)C(F)(F)F)nn(CC2CCC2(F)F)c1C(=O)Nc1ccnc(C(N)=O)c1` (single isomer, unassigned) [SC-278a], the IC50 was at most 100 nM. As for `Cc1c(C(F)(F)C(F)(F)F)nn(CC2CCC2(F)F)c1C(=O)Nc1ccnc(C(N)=O)c1` (single isomer, unassigned) [SC-278b], the IC50 was at most 100 nM. Turning to `NC(=O)c1cc(NC(=O)c2c(C(F)(F)F)c(C3CC3)nn2CC2CC2(F)F)ccn1` (single isomer, unassigned) [SC-279a], the IC50 lay in the range of 100 to 1000 nM. With `NC(=O)c1cc(NC(=O)c2c(C(F)(F)F)c(C3CC3)nn2CC2CC2(F)F)ccn1` (single isomer, unassigned) [SC-279b], the IC50 lay within 100 to 1000 nM. Consider `COC1CC(Cn2nc(C3CC3)c(C(F)(F)F)c2C(=O)Nc2ccnc(C(N)=O)c2)C1` (single isomer, unassigned) [SC-281a], for which the IC50 is 100 to 1000 nM.

On to `COC1CC(Cn2nc(C3CC3)c(C(F)(F)F)c2C(=O)Nc2ccnc(C(N)=O)c2)C1` (single isomer, unassigned) [SC-281b], for which the IC50 lay in the range of 100 to 1000 nM. With `NC(=O)c1cc(NC(=O)c2c(C(F)(F)F)c(C3CC3)nn2C[C@@H]2CC[C@H](C(F)(F)F)O2)ccn1` (single isomer, unassigned) [SC-284a], the IC50 is at most 100 nM.

As to `NC(=O)c1cc(NC(=O)c2c(C(F)(F)F)c(C3CC3)nn2C[C@@H]2CC[C@H](C(F)(F)F)O2)ccn1` (single isomer, unassigned) [SC-284b], the IC50 is at most 100 nM. Consider `C[C@@H]1CC[C@H](Cn2nc(C3CC3)c(C(F)(F)F)c2C(=O)Nc2ccnc(C(N)=O)c2)O1` (single isomer, unassigned) [SC-286a], for which the half-inhibitory concentration (IC50) was in the range of 100 to 1000 nM. The result for `C[C@@H]1CC[C@H](Cn2nc(C3CC3)c(C(F)(F)F)c2C(=O)Nc2ccnc(C(N)=O)c2)O1` (single isomer, unassigned) [SC-286b] reads 100 to 1000 nM. As for `NC(=O)c1cc(NC(=O)c2c(C(F)(F)F)c(C3CC3)nn2CC2CC(F)(F)C2(F)F)ccn1` (single isomer, unassigned) [SC-291a], the figure is at most 100 nM. On to `NC(=O)c1cc(NC(=O)c2c(C(F)(F)F)c(C3CC3)nn2CC2CC(F)(F)C2(F)F)ccn1` (single isomer, unassigned) [SC-291b], for which the IC50 is at most 100 nM. Consider `Cc1c(C(C)(F)F)nn(CC2CCC(F)(F)C2)c1C(=O)Nc1cccc(S(N)(=O)=O)c1` (single isomer, unassigned) [SC-296a], for which the half-maximal inhibitory concentration (IC50) was at most 100 nM.

Regarding `Cc1c(C(C)(F)F)nn(C[C@H]2CCC(F)(F)C2)c1C(=O)Nc1cccc(S(N)(=O)=O)c1` (single isomer, unassigned) [SC-296b], the IC50 was at most 100 nM. With `Cc1c(C(C)(F)F)nn(CC2(C)CCCCO2)c1C(=O)Nc1ccnc(S(N)(=O)=O)c1` (single isomer, unassigned) [SC-312a], the 50% inhibitory concentration (IC50) is 100 to 1000 nM. In the case of `Cc1c(C(C)(F)F)nn(C[C@@]2(C)CCCCO2)c1C(=O)Nc1ccnc(S(N)(=O)=O)c1` (single isomer, unassigned) [SC-312b], the IC50 is 100 to 1000 nM. For the compound `Cc1c(C(C)(F)F)nn(C[C@@H]2CC[C@H]2C(F)(F)F)c1C(=O)Nc1ccnc(C(N)=O)c1` (single isomer, unassigned) [SC-315a], the half-inhibitory concentration (IC50) is at most 100 nM. Take `Cc1c(C(C)(F)F)nn(C[C@@H]2CC[C@H]2C(F)(F)F)c1C(=O)Nc1ccnc(C(N)=O)c1` (single isomer, unassigned) [SC-315b]: the IC50 is at most 100 nM. Turning to `Cc1c(C(C)(F)F)nn(C[C@]2(C)CCCO2)c1C(=O)Nc1ccnc(S(N)(=O)=O)c1` (single isomer, unassigned) [SC-319a], the concentration for half-maximal inhibition (IC50) fell in the range of 100 to 1000 nM. As to `Cc1c(C(C)(F)F)nn(CC2(C)CCCO2)c1C(=O)Nc1ccnc(S(N)(=O)=O)c1` (single isomer, unassigned) [SC-319b], the IC50 is 1000 to 10000 nM.

Regarding `Cc1c(C(C)(F)F)nn(CC2C[C@H]2C(F)F)c1C(=O)Nc1ccnc(S(C)(=O)=O)c1` (stereo in doubt) [SC-207, 3-(1,1-difluoroethyl)-1-((2-(difluoromethyl)cyclopropyl)methyl)-4-methyl-N-(2-(methylsulfonyl)pyridin-4-yl)-1H-pyrazole-5-carboxamide], the IC50 was 100 to 1000 nM. For the compound `CS(=O)(=O)c1cccc(NC(=O)c2cc(C(F)(F)F)nn2CC2CCCCC2)c1` [SC-01, 1-(cyclohexylmethyl)-N-(3-(methylsulfonyl)phenyl)-3-(trifluoromethyl)-1H-pyrazole-5-carboxamide], the IC50 is 100 to 1000 nM. As for `CS(=O)(=O)c1cccc(NC(=O)c2cc(C(F)(F)F)nn2CC2CCC(F)(F)CC2)c1` [SC-02, 2-[(4,4-difluorocyclohexyl)methyl]-N-(3-methylsulfonylphenyl)-5-(trifluoromethyl)pyrazole-3-carboxamide], the figure is 100 to 1000 nM.

With `CS(=O)(=O)c1cccc(NC(=O)c2cc(C(F)(F)F)nn2CC2CCCC2)c1` [SC-03, 2-(cyclopentylmethyl)-N-(3-methylsulfonylphenyl)-5-(trifluoromethyl)pyrazole-3-carboxamide], the half-inhibitory concentration (IC50) lay in the range of 100 to 1000 nM. For `CS(=O)(=O)c1cccc(NC(=O)c2cc(C(F)(F)F)nn2CC2CCOCC2)c1` [SC-04, N-(3-methylsulfonylphenyl)-2-(oxan-4-ylmethyl)-5-(trifluoromethyl)pyrazole-3-carboxamide], the IC50 lay in the range of 1000 to 10000 nM.
